Experimental data from US9637520B2, “Template-fixed peptidomimetics with CXCR7 modulating activity” (POLYPHOR AG, priority 2010, dated 2017).
Non-standard residues stand in square brackets, D forms with d. Residues, ends and D or L forms follow the SMILES beside them. *: point of attachment. dPro(cis-4-NH2) = N[C@H]1CN[C@@H](C(=O)O)C1; dPro(4S-NH2) = N[C@@H]1CN[C@@H](C(=O)O)C1; Oic = O=C(O)[C@@H]1C[C@@H]2CCCC[C@@H]2N1; Morpholine(3S-CO) = O=C(O)[C@@H]1COCCN1; Pro(4S-NH2) = N[C@@H]1CN[C@H](C(=O)O)C1; Pro(4R-NH2) = N[C@H]1CN[C@H](C(=O)O)C1; 1Nal = N[C@@H](Cc1cccc2ccccc12)C(=O)O; 2Nal = N[C@@H](Cc1ccc2ccccc2c1)C(=O)O; Pro(3S-OH) = O=C(O)[C@H]1NCC[C@@H]1O; cisHyp = O=C(O)[C@@H]1C[C@H](O)CN1; hArg = N=C(N)NCCCC[C@H](N)C(=O)O; 3Pal = N[C@@H](Cc1cccnc1)C(=O)O; Tic = O=C(O)[C@@H]1Cc2ccccc2CN1; d3Pal = N[C@H](Cc1cccnc1)C(=O)O; dHyp = O=C(O)[C@H]1C[C@H](O)CN1; Agb = N=C(N)NCC[C@H](N)C(=O)O; Chg = N[C@H](C(=O)O)C1CCCCC1; Abu = CC[C@H](N)C(=O)O; Bn = c1ccc(C*)cc1

target: T1, CXCR7 (Homo sapiens, UniProt P25106); assay: CXCR7 β-arrestin recruitment assay (PathHunter CHO-CXCR7, DiscoverX), agonistic assay; assay type: cell-based; settings: agonistic assay; CHO CXCR7 β-arrestin cells; 90 min at 37° C.; chemiluminescence; read-out: β-Arrestin EC50
T1 construct: host or cells: CHO (PathHunter CHO-CXCR7 β-arrestin cells)
Description: Lyophilized peptides were weighed on a Microbalance (Mettler MX5) and dissolved in DMSO to a final concentration of 10 mM unless otherwise stated. Stock solutions were kept at +4° C., and protected from light.
2.2 CXCR7 β-Arrestin Recruitment Assay
The PathHunter CHO-CXCR7 (DiscoverX) assay was performed according to the manufacturer's protocol. In brief, CHO CXCR7 β-arrestin cells were seeded at a density of 5000 cells per well in 40 μl of F12 medium in black 96-half volume well culture plates and incubated overnight at 37° C. in a humidified atmosphere with 5% CO2. The next day, serial dilutions of PEM compounds have been prepared in DMSO and subsequently diluted in HBSS buffer containing 0.1% BSA.
For agonistic assay, 10 μl of compound solution or a solution of stromal cell-derived factor-1 (SDF-1) as positive control was added to the cells with a final DMSO concentration of 1% (v/v). The plate was incubated for 90 min at 37° C. in 5% CO2 incubator with gentle shaking (300 rpm) before addition of 40 μl of detection reagent per well. Reaction was developed for 90 min at room temperature in the dark with shaking, and chemiluminescence was measured with a Topcount (Perkin Elmer) luminescence counter.

T1 sequence (P25106 whole entry): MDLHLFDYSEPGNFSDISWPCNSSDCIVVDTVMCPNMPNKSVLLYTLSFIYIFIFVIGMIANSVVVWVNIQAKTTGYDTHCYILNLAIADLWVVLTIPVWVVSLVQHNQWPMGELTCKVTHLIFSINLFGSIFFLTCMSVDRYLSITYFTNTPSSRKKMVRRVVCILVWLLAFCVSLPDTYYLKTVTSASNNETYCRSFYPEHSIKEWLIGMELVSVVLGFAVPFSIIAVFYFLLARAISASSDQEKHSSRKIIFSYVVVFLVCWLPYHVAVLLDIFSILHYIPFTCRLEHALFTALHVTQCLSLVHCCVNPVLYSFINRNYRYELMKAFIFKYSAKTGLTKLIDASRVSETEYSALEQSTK

Question: For N[C@@H]1C[C@@H]2C(=O)N3Cc4ccccc4C[C@H]3C(=O)N[C@@H](Cc3c[nH]c4ccccc34)C(=O)N[C@H](Cc3ccccc3)C(=O)N[C@@H](Cc3c[nH]c4ccccc34)C(=O)N[C@@H](Cc3c[nH]cn3)C(=O)N2C1 [compound 32, cyclo(-Trp-^DPhe-Trp-His-^DPro((4R)NH2)-Tic-)] (cyclo(H[dPro(cis-4-NH2)][Tic]W[dF]W)), which EC50 is on record?
Answer: 20.4 ± 6.6 nM

Question: How did the EC50 turn out when N=C(N)NCCC[C@@H]1NC(=O)[C@@H]2Cc3ccccc3CN2C(=O)[C@H]2C[C@@H](N)CN2C(=O)[C@H](CCCNC(=N)N)NC(=O)[C@H](Cc2c[nH]c3ccccc23)NC(=O)[C@@H](Cc2ccccc2)NC1=O [compound 33, cyclo(-Arg-^DPhe-Trp-Arg-^DPro((4R)NH2)-Tic-)] (cyclo(R[dF]WR[dPro(cis-4-NH2)][Tic])) was run?
Answer: 248 ± 16.5 nM

Question: For N=C(N)NCCCC[C@@H]1NC(=O)[C@@H]2Cc3ccccc3CN2C(=O)[C@H]2C[C@@H](N)CN2C(=O)[C@H](CCCNC(=N)N)NC(=O)[C@H](Cc2c[nH]c3ccccc23)NC(=O)[C@@H](Cc2ccccc2)NC1=O [compound 35, cyclo(-hArg-^DPhe-Trp-Arg-^DPro((4R)NH2)-Tic-)] (cyclo(R[dPro(cis-4-NH2)][Tic][hArg][dF]W)), which EC50 is on record?
Answer: 12.2 ± 5.4 nM

Question: For N=C(N)NCCC[C@@H]1NC(=O)[C@H](Cc2c[nH]c3ccccc23)NC(=O)[C@@H](Cc2ccccc2)NC(=O)[C@H](CCNC(=N)N)NC(=O)[C@@H]2Cc3ccccc3CN2C(=O)[C@H]2C[C@@H](N)CN2C1=O [compound 36, cyclo(-Agb-^DPhe-Trp-Arg-^DPro((4R)NH2)-Tic-)] (cyclo([Agb][dF]WR[dPro(cis-4-NH2)][Tic])), which EC50 is on record?
Answer: 452 ± 15.8 nM

Question: N=C(N)NCCC[C@@H]1NC(=O)[C@H](Cc2c[nH]c3ccccc23)NC(=O)[C@@H](Cc2ccccc2)NC(=O)[C@H](Cc2cccnc2)NC(=O)[C@@H]2Cc3ccccc3CN2C(=O)[C@H]2C[C@@H](N)CN2C1=O [compound 37, cyclo(-3Pal-^DPhe-Trp-Arg-^DPro((4R)NH2)-Tic-)] (cyclo([3Pal][dF]WR[dPro(cis-4-NH2)][Tic])) was tested. Which EC50 did it give?
Answer: 5.1 ± 0.9 nM

Question: Which EC50 does the source give for N=C(N)NCCC[C@@H]1NC(=O)[C@H](Cc2c[nH]c3ccccc23)NC(=O)[C@@H](Cc2cccnc2)NC(=O)[C@H](Cc2c[nH]c3ccccc23)NC(=O)[C@@H]2Cc3ccccc3CN2C(=O)[C@H]2C[C@@H](N)CN2C1=O [compound 38, cyclo(-Trp-^D3Pal-Trp-Arg-^DPro((4R)NH2)-Tic-)] (cyclo(R[dPro(cis-4-NH2)][Tic]W[d3Pal]W)) here?
Answer: 6.1 ± 1.5 nM

Question: N=C(N)NCCCC[C@@H]1NC(=O)[C@H](Cc2c[nH]c3ccccc23)NC(=O)[C@@H](Cc2ccccc2)NC(=O)[C@H](CCCNC(=N)N)NC(=O)[C@@H]2Cc3ccccc3CN2C(=O)[C@H]2C[C@@H](N)CN2C1=O [compound 39, cyclo(-Arg-^DPhe-Trp-hArg-^DPro((4R)N H2)-Tic-)] (cyclo(R[dF]W[hArg][dPro(cis-4-NH2)][Tic])) was tested. Which EC50 did it give?
Answer: 352 ± 79.3 nM

Question: Which EC50 does the source give for N=C(N)NCCC[C@@H]1NC(=O)[C@@H]2Cc3ccccc3CN2C(=O)[C@H]2C[C@H](N)CN2C(=O)[C@H](CCCNC(=N)N)NC(=O)[C@H](Cc2c[nH]c3ccccc23)NC(=O)[C@@H](Cc2ccccc2)NC1=O [compound 40, cyclo(-Arg-^DPhe-Trp-Arg-^DPro((4S)NH2)-Tic-)] (cyclo(R[dF]WR[dPro(4S-NH2)][Tic])) here?
Answer: 13.1 ± 4.4 nM

Question: How did the EC50 turn out when N=C(N)NCCC[C@@H]1NC(=O)[C@@H]2C[C@@H]3CCCC[C@@H]3N2C(=O)[C@H]2C[C@@H](N)CN2C(=O)[C@H](CCCNC(=N)N)NC(=O)[C@H](Cc2c[nH]c3ccccc23)NC(=O)[C@@H](Cc2ccccc2)NC1=O [compound 42, cyclo(-Arg-^DPhe-Trp-Arg-^DPro((4R)NH2)-Oic-)] (cyclo([Oic]R[dF]WR[dPro(cis-4-NH2)])) was run?
Answer: 20.5 ± 10.9 nM

Question: How did the EC50 turn out when N=C(N)NCCC[C@@H]1NC(=O)[C@H](Cc2c[nH]c3ccccc23)NC(=O)[C@@H](Cc2ccccc2)NC(=O)[C@H](Cc2c[nH]c3ccccc23)NC(=O)[C@@H]2C[C@H](N)CN2C(=O)[C@H]2CCCN2C1=O [compound 44, cyclo(-Trp-^DPhe-Trp-Arg-^DPro-Pro((4S)NH2)—)] (cyclo(R[dP][Pro(4S-NH2)]W[dF]W)) was run?
Answer: 36.9 ± 14 nM

Question: For N=C(N)NCCC[C@@H]1NC(=O)[C@H](Cc2c[nH]c3ccccc23)NC(=O)[C@@H](Cc2ccccc2)NC(=O)[C@H](Cc2c[nH]c3ccccc23)NC(=O)[C@@H]2C[C@@H](N)CN2C(=O)[C@H]2CCCN2C1=O [compound 45, cyclo(-Trp-^DPhe-Trp-Arg-^DPro-Pro((4R)NH2)—)] (cyclo(R[dP][Pro(4R-NH2)]W[dF]W)), which EC50 is on record?
Answer: 26.9 ± 12.6 nM

Question: N=C(N)NCCC[C@@H]1NC(=O)[C@H](Cc2c[nH]c3ccccc23)NC(=O)[C@@H](Cc2ccccc2)NC(=O)[C@H](Cc2c[nH]c3ccccc23)NC(=O)[C@@H]2COCCN2C(=O)[C@H]2CCCN2C1=O [compound 46, cyclo(-Trp-^DPhe-Trp-Arg-^DPro-Mor-)] (cyclo(R[dP][Morpholine(3S-CO)]W[dF]W)) was tested. Which EC50 did it give?
Answer: 132 ± 53.1 nM

Question: Which EC50 does the source give for N=C(N)NCCC[C@@H]1NC(=O)[C@H](Cc2c[nH]c3ccccc23)NC(=O)[C@@H](Cc2ccccc2)NC(=O)[C@H](Cc2c[nH]c3ccccc23)NC(=O)[C@@H]2C[C@H](OCc3ccccc3)CN2C(=O)[C@H]2C[C@H](O)CN2C1=O [compound 49, cyclo(-Trp-^DPhe-Trp-Arg-^DPro((4S)OH)-(4S)-Hyp(Bn)-)] (cyclo(R[dHyp][cisHyp](Bn)W[dF]W)) here?
Answer: 7.6 ± 10.1 nM

Question: Which EC50 does the source give for N=C(N)NCCC[C@@H]1NC(=O)[C@H](Cc2c[nH]c3ccccc23)NC(=O)[C@@H](Cc2ccccc2)NC(=O)[C@H](Cc2c[nH]c3ccccc23)NC(=O)[C@@H]2C[C@H](OCc3ccccc3)CN2C(=O)[C@H]2C[C@@H](N)CN2C1=O [compound 50, cyclo(-Trp-^DPhe-Trp-Arg-^DPro((4R)NH2)-(4S)-Hyp(Bn)-)] (cyclo(R[dPro(cis-4-NH2)][cisHyp](Bn)W[dF]W)) here?
Answer: 6.6 ± 1.6 nM

Question: How did the EC50 turn out when N=C(N)NCCC[C@@H]1NC(=O)[C@@H](CCCNC(=N)N)NC(=O)[C@H](Cc2cccc3ccccc23)NC(=O)[C@@H]2[C@@H](O)CCN2C(=O)[C@H]2CCCN2C(=O)[C@H](Cc2c[nH]c3ccccc23)NC1=O [compound 52, cyclo(-1Nal-^DArg-Arg-Trp-^DPro-Pro((3S)OH)—)] (cyclo([1Nal][dR]RW[dP][Pro(3S-OH)])) was run?
Answer: 13.7 ± 5.1 nM

Question: For CC[C@H](C)[C@@H]1NC(=O)[C@@H]2[C@@H](O)CCN2C(=O)[C@H]2CCCN2C(=O)[C@H](Cc2ccc3ccccc3c2)NC(=O)[C@H](CCCNC(=N)N)NC(=O)[C@@H](CCCNC(=N)N)NC1=O [compound 53, cyclo(-Ile-^DArg-Arg-2Nal-^DPro-Pro((3S)OH)—)] (cyclo([2Nal][dP][Pro(3S-OH)]I[dR]R)), which EC50 is on record?
Answer: 76.8 ± 47.9 nM

Question: With CC(C)[C@@H]1NC(=O)[C@H]([C@@H](C)O)NC(=O)[C@H]2CCCN2C(=O)[C@H](Cc2c[nH]c3ccccc23)NC(=O)[C@H](CCCNC(=N)N)NC(=O)[C@@H](CCCNC(=N)N)NC1=O [compound 57, cyclo(-Val-^DArg-Arg-Trp-^DPro-Thr-)] (cyclo(RW[dP]TV[dR])) as the compound, how does the EC50 read?
Answer: 271 ± 0.2 nM

Question: With CC[C@@H]1NC(=O)[C@H]([C@@H](C)O)NC(=O)[C@H]2CCCN2C(=O)[C@H](Cc2c[nH]c3ccccc23)NC(=O)[C@H](CCCNC(=N)N)NC(=O)[C@@H](CCCNC(=N)N)NC1=O [compound 58, cyclo(-Abu-^DArg-Arg-Trp-^DPro-Thr-)] (cyclo([Abu][dR]RW[dP]T)) as the compound, how does the EC50 read?
Answer: 330 ± 93.2 nM

Question: With C[C@@H](O)[C@@H]1NC(=O)[C@H]2CCCN2C(=O)[C@H](Cc2c[nH]c3ccccc23)NC(=O)[C@H](CCCNC(=N)N)NC(=O)[C@@H](CCCNC(=N)N)NC(=O)[C@H](C2CCCCC2)NC1=O [compound 59, cyclo(-Chg-^DArg-Arg-Trp-^DPro-Thr-)] (cyclo([Chg][dR]RW[dP]T)) as the compound, how does the EC50 read?
Answer: 6.7 ± 2.2 nM
